Publication PMC3729937 (Biochemical and biophysical research communications, 2012)

What was measured:
FGFR2 D2 domain [1] = molecular target: FGFR2 D2 domain (Homo sapiens, UniProt P21802); test: ITC; type: binding
FGFR2 D2 domain [2] = molecular target: FGFR2 D2 domain (Homo sapiens, UniProt P21802, A168S); test: ITC, supported by 1H-15N HSQC chemical shift perturbation; type: binding
[3] = molecular target: fibroblast growth factor (FGF-1) (UniProt P05230 16-155); test: ITC
Chain of fibroblast growth factor (FGF-1) (P05230 16-155): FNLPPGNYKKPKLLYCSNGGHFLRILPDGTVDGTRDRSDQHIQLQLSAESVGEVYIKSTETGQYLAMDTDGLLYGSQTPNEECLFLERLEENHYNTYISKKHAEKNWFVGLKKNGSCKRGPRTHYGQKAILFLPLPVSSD

Chain of FGFR2 D2 domain (Homo sapiens, UniProt P21802, A168S) (P21802 145-255 A168S): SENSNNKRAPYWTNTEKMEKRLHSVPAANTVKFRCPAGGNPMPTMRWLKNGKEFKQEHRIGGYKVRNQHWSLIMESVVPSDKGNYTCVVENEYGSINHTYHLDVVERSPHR

O=S(=O)(O)OC[C@H]1O[C@@](COS(=O)(=O)O)(O[C@H]2O[C@H](COS(=O)(=O)O)[C@@H](OS(=O)(=O)O)[C@H](OS(=O)(=O)O)[C@H]2OS(=O)(=O)O)[C@@H](OS(=O)(=O)O)[C@@H]1OS(=O)(=O)O [SOS, sucrose octasulfate]
Kd (FGFR2 D2 domain [1]): ~2.2 µM
Kd (FGFR2 D2 domain [2]): ~22 µM

B1: wild type D2 domain of fibroblast growth factor receptor 2 (FGFR2), residues 145-255 (domain or fragment, human, UniProt P21802 145-255, looked up)
chain: SENSNNKRAPYWTNTEKMEKRLHAVPAANTVKFRCPAGGNPMPTMRWLKNGKEFKQEHRIGGYKVRNQHWSLIMESVVPSDKGNYTCVVENEYGSINHTYHLDVVERSPHR
Kd [3]: ~2 µM
